T/C data for 17 compounds are collected here from PubChem BioAssay AID270 (DTP/NCI, 2004).

The structures appear in SMILES notation. “And” between values parts separate entries of the source, which are not always exact repeats. Identical values can stand only once. Inconclusive results are not listed.

For the assay, the system named is BDF1 mice, s.c. Lewis lung carcinoma, T/C %. Kind of assay: NCI In Vivo Anticancer Drug Screen. Data for tumor model Lewis Lung Carcinoma (subcutaneous) in B6D2F1 (BDF1) mice. Put shortly:
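The value reflects a ratio in which the treated cohort's survival time or tumour size is compared against mice receiving only vehicle.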

Where [1] appears, read: endpoint: mean tumor weight, dose: 50.0 mg/kg/injection, schedule: Q01DX011 (ip), vehicle: carboxymethylcellulose (CMC), higher = larger tumour.
Setting [2] is: endpoint: median survival time, dose: 1.0 mg/kg/injection, schedule: Q01DX009 (ip), vehicle: saline, higher = longer survival.
The mark [3] stands for this setting: endpoint: median survival time, dose: 2.0 mg/kg/injection, schedule: Q01DX009 (ip), vehicle: saline, higher = longer survival.

As to `COc1cc(OC)c(OC)cc1/C=C/c1cc[n+](C)c2ccccc12`, the T/C is, setting by setting: (endpoint: median survival time, dose: 6.25 mg/kg/injection, schedule: Q01DX009 (ip), vehicle: saline, higher = longer survival) 97 % of control; (endpoint: median survival time, dose: 12.5 mg/kg/injection, schedule: Q01DX009 (ip), vehicle: saline, higher = longer survival) 97 % of control; (endpoint: median survival time, dose: 25.0 mg/kg/injection, schedule: Q01DX009 (ip), vehicle: saline, higher = longer survival) 111 % of control.

On to `COC1=C(N)C(=O)c2nc(-c3nc(C(=O)O)c(C)cc3N)ccc2C1=O`, for which the T/C is 91 % of control (endpoint: median survival time, dose: 0.02 mg/kg/injection, schedule: Q01DX009 (ip), vehicle: Klucel (hydroxypropylcellulose) (HPC), higher = longer survival); 106 % of control (endpoint: median survival time, dose: 0.05 mg/kg/injection, schedule: Q01DX009 (ip), vehicle: Klucel (hydroxypropylcellulose) (HPC), higher = longer survival); 103 % of control (endpoint: median survival time, dose: 0.1 mg/kg/injection, schedule: Q01DX009 (ip), vehicle: Klucel (hydroxypropylcellulose) (HPC), higher = longer survival).

`O=NN(CCCl)C(=O)N[C@H]1CCC[C@@H](C(=O)O)C1`: the T/C is, setting by setting: (endpoint: median survival time, dose: 14.0 mg/kg/injection, schedule: Q01DX001 (ip), vehicle: Klucel (hydroxypropylcellulose) (HPC), higher = longer survival) 88 % of control; (endpoint: median survival time, dose: 32.0 mg/kg/injection, schedule: Q01DX001 (ip), vehicle: Klucel (hydroxypropylcellulose) (HPC), higher = longer survival) 93 % of control.

Take `CC(=O)O[C@@H]1[C@@H](O)[C@H]2O[C@@H]3C=C(C)CC[C@]3(CO)[C@]1(C)[C@@]21CO1`: the T/C was 92 % of control (endpoint: median survival time, dose: 1.25 mg/kg/injection, schedule: Q01DX009 (ip), vehicle: saline with Tween-80, higher = longer survival); 100 % of control (endpoint: median survival time, dose: 2.5 mg/kg/injection, schedule: Q01DX009 (ip), vehicle: saline with Tween-80, higher = longer survival); 97 % of control (endpoint: median survival time, dose: 5.0 mg/kg/injection, schedule: Q01DX009 (ip), vehicle: saline with Tween-80, higher = longer survival).

As to `CCCCCCCCCCCCSC(=N)N`, the T/C is 107 % of control (endpoint: median survival time, dose: 6.25 mg/kg/injection, schedule: Q01DX009 (ip), vehicle: saline with Tween-80, higher = longer survival); 106 % of control (endpoint: median survival time, dose: 12.5 mg/kg/injection, schedule: Q01DX009 (ip), vehicle: saline with Tween-80, higher = longer survival); 104 % of control (endpoint: median survival time, dose: 25.0 mg/kg/injection, schedule: Q01DX009 (ip), vehicle: saline with Tween-80, higher = longer survival).

As to `c1ccc2cc3c(cc2c1)Cn1c-3nc2ccccc21`, the T/C was 64 % of control under setting [1]; 33 % of control and 48 % of control (endpoint: mean tumor weight, dose: 55.0 mg/kg/injection, schedule: Q01DX011 (ip), vehicle: carboxymethylcellulose (CMC), higher = larger tumour); 52 % of control (endpoint: mean tumor weight, dose: 80.0 mg/kg/injection, schedule: Q01DX011 (ip), vehicle: carboxymethylcellulose (CMC), higher = larger tumour); 23 % of control (endpoint: mean tumor weight, dose: 100.0 mg/kg/injection, schedule: Q01DX011 (ip), vehicle: carboxymethylcellulose (CMC), higher = larger tumour); 26 % of control (endpoint: mean tumor weight, dose: 120.0 mg/kg/injection, schedule: Q01DX011 (ip), vehicle: carboxymethylcellulose (CMC), higher = larger tumour); 34 % of control (endpoint: mean tumor weight, dose: 180.0 mg/kg/injection, schedule: Q01DX011 (ip), vehicle: carboxymethylcellulose (CMC), higher = larger tumour). Further, the T/C (endpoint: mean tumor weight, dose: 200.0 mg/kg/injection, schedule: Q01DX011 (ip), vehicle: carboxymethylcellulose (CMC), higher = larger tumour) is 37 % of control and the T/C (endpoint: mean tumor weight, dose: 400.0 mg/kg/injection, schedule: Q01DX011 (ip), vehicle: carboxymethylcellulose (CMC), higher = larger tumour) was 38 % of control.

For `Oc1ccccc1/C=N/NC(=S)NC1CC2C=CC1C2` (stereo not given), the T/C runs as follows: (endpoint: median survival time, dose: 12.5 mg/kg/injection, schedule: Q01DX009 (ip), vehicle: olive oil, sesame oil, peanut oil, higher = longer survival) 94 % of control; (endpoint: median survival time, dose: 100.0 mg/kg/injection, schedule: Q01DX009 (ip), vehicle: olive oil, sesame oil, peanut oil, higher = longer survival) 91 % of control; (endpoint: median survival time, dose: 200.0 mg/kg/injection, schedule: Q01DX009 (ip), vehicle: olive oil, sesame oil, peanut oil, higher = longer survival) 87 % of control.

`CCOC(C)C(/C=N/NC(N)=S)=NNC(N)=S` (stereo not given): the T/C is 77 % of control (endpoint: mean tumor weight, dose: 30.0 mg/kg/injection, schedule: Q01DX011 (ip), vehicle: saline, higher = larger tumour); 81 % of control (endpoint: mean tumor weight, dose: 60.0 mg/kg/injection, schedule: Q01DX011 (ip), vehicle: saline, higher = larger tumour); 66 % of control (endpoint: mean tumor weight, dose: 120.0 mg/kg/injection, schedule: Q01DX011 (ip), vehicle: saline, higher = larger tumour).

Consider `CCC(c1ccc(O)cc1)C(CC)c1ccc(OC)cc1` (stereo not given), for which the T/C is, setting by setting: (endpoint: mean tumor weight, dose: 4.0 mg/kg/injection, schedule: Q01DX011 (sc), vehicle: steriod suspending solution, higher = larger tumour) 60 % of control; (endpoint: mean tumor weight, dose: 8.0 mg/kg/injection, schedule: Q01DX011 (sc), vehicle: steriod suspending solution, higher = larger tumour) 36 % of control; (endpoint: mean tumor weight, dose: 16.0 mg/kg/injection, schedule: Q01DX011 (sc), vehicle: steriod suspending solution, higher = larger tumour) 33 % of control; (endpoint: mean tumor weight, dose: 31.3 mg/kg/injection, schedule: Q01DX011 (ip), vehicle: saline, higher = larger tumour) 23 % of control; (endpoint: mean tumor weight, dose: 32.0 mg/kg/injection, schedule: Q01DX011 (sc), vehicle: steriod suspending solution, higher = larger tumour) 16 % of control; (endpoint: mean tumor weight, dose: 62.5 mg/kg/injection, schedule: Q01DX011 (ip), vehicle: saline, higher = larger tumour) 21 % of control. In addition, the T/C is 16 % of control (endpoint: mean tumor weight, dose: 125.0 mg/kg/injection, schedule: Q01DX011 (ip), vehicle: saline, higher = larger tumour) and 13 % of control (endpoint: mean tumor weight, dose: 250.0 mg/kg/injection, schedule: Q01DX011 (ip), vehicle: saline, higher = larger tumour).

As for `CC1CN1c1nc(N2CC2C)nc(N2CC2C)n1` (stereo not given), the T/C reads like this: under setting [2], 106 % of control; under setting [3], 86 % of control; (endpoint: median survival time, dose: 4.0 mg/kg/injection, schedule: Q01DX009 (ip), vehicle: saline, higher = longer survival) 105 % of control; (endpoint: median survival time, dose: 8.0 mg/kg/injection, schedule: Q01DX009 (ip), vehicle: saline, higher = longer survival) 105 % of control.

`C[CH2][Pb]([CH2]C)([CH2]C)[O]C(=O)COC`: the T/C is 92 % of control (endpoint: median survival time, dose: 1.56 mg/kg/injection, schedule: Q01DX009 (ip), vehicle: Klucel (hydroxypropylcellulose) (HPC), higher = longer survival) and 96 % of control (endpoint: median survival time, dose: 3.13 mg/kg/injection, schedule: Q01DX009 (ip), vehicle: Klucel (hydroxypropylcellulose) (HPC), higher = longer survival).

Regarding `CC(=O)OC(C)C1C2=C(C(=O)CC1(C)O)C(=O)c1c(ccc(-c3ccc4c(c3O)C(=O)C3=C(C4=O)C(C(C)OC(C)=O)C(C)(O)CC3=O)c1O)C2=O` (stereo not given), the T/C was 112 % of control (endpoint: median survival time, dose: 0.1 mg/kg/injection, schedule: Q01DX009 (ip), vehicle: saline + alcohol, higher = longer survival); 122 % of control (endpoint: median survival time, dose: 0.38 mg/kg/injection, schedule: Q01DX009 (ip), vehicle: saline + alcohol, higher = longer survival); 119 % of control (endpoint: median survival time, dose: 0.75 mg/kg/injection, schedule: Q01DX009 (ip), vehicle: saline + alcohol, higher = longer survival); 97 % of control (endpoint: median survival time, dose: 1.5 mg/kg/injection, schedule: Q01DX009 (ip), vehicle: saline + alcohol, higher = longer survival); 101 % of control (endpoint: median survival time, dose: 1.56 mg/kg/injection, schedule: Q01DX009 (ip), vehicle: saline with Tween-80, higher = longer survival).

`Cc1c2cc3c(c1O)C(=O)CC(O3)c1ccc(O)c(c1)-c1ccc(O)c(c1)C(=O)OCC1OC(O2)C(O)C(O)C1O` (stereo not given): the T/C is, setting by setting: (endpoint: median survival time, dose: 0.13 mg/kg/injection, schedule: Q01DX009 (ip), vehicle: Klucel (hydroxypropylcellulose) (HPC), higher = longer survival) 112 % of control; (endpoint: median survival time, dose: 0.25 mg/kg/injection, schedule: Q01DX009 (ip), vehicle: Klucel (hydroxypropylcellulose) (HPC), higher = longer survival) 102 % of control; (endpoint: median survival time, dose: 0.5 mg/kg/injection, schedule: Q01DX009 (ip), vehicle: Klucel (hydroxypropylcellulose) (HPC), higher = longer survival) 100 % of control; (endpoint: median survival time, dose: 1.0 mg/kg/injection, schedule: Q01DX009 (ip), vehicle: Klucel (hydroxypropylcellulose) (HPC), higher = longer survival) 101 % of control.

Consider `COc1cc(C=Nc2ccc(-n3ccnc3C)cc2)ccc1N(CCCl)CCCl`, for which the T/C is 116 % of control (endpoint: median survival time, dose: 2.5 mg/kg/injection, schedule: Q01DX009 (ip), vehicle: Klucel (hydroxypropylcellulose) (HPC), higher = longer survival); 103 % of control (endpoint: median survival time, dose: 5.0 mg/kg/injection, schedule: Q01DX009 (ip), vehicle: Klucel (hydroxypropylcellulose) (HPC), higher = longer survival); 113 % of control (endpoint: median survival time, dose: 10.0 mg/kg/injection, schedule: Q01DX009 (ip), vehicle: Klucel (hydroxypropylcellulose) (HPC), higher = longer survival).

`CCCCCCCCCCCCCCCCC(C(=O)O)C(O)(CC(=O)O)C(=O)O` (stereo not given): the T/C reads like this: (endpoint: mean tumor weight, dose: 22.0 mg/kg/injection, schedule: Q01DX011 (ip), vehicle: carboxymethylcellulose (CMC), higher = larger tumour) 64 % of control; (endpoint: mean tumor weight, dose: 35.0 mg/kg/injection, schedule: Q01DX011 (ip), vehicle: carboxymethylcellulose (CMC), higher = larger tumour) 68 % of control; under setting [1], 46 % of control.

As to `CC1OC(O[C@@H]2C=C3CC[C@@H]4[C@H](CC[C@]5(C)[C@@H](c6ccc(=O)oc6)CC[C@]45O)[C@@]3(C)CC2)C(O)C(O)C1O` (stereo not given in full), the T/C was 114 % of control (endpoint: mean tumor weight, dose: 1.25 mg/kg/injection, schedule: Q01DX011 (ip), vehicle: saline, higher = larger tumour); 90 % of control (endpoint: mean tumor weight, dose: 2.5 mg/kg/injection, schedule: Q01DX011 (ip), vehicle: saline, higher = larger tumour); 64 % of control (endpoint: mean tumor weight, dose: 5.0 mg/kg/injection, schedule: Q01DX011 (ip), vehicle: saline, higher = larger tumour); 83 % of control (endpoint: mean tumor weight, dose: 10.0 mg/kg/injection, schedule: Q01DX011 (ip), vehicle: saline, higher = larger tumour).

`COc1ccc(CC2C(=O)NC(C)C(=O)N(C)C3C(=O)N(C)C(Cc4ccc(O)c(c4)Oc4ccc(cc4)C3O)C(=O)NC(C)C(=O)NC(C)C(=O)N2C)cc1` (stereo not given): the T/C reads like this: (endpoint: median survival time, dose: 0.25 mg/kg/injection, schedule: Q01DX009 (ip), vehicle: saline, higher = longer survival) 96 % of control; (endpoint: median survival time, dose: 0.5 mg/kg/injection, schedule: Q01DX009 (ip), vehicle: saline, higher = longer survival) 97 % of control; under setting [2], 113 % of control; under setting [3], 87 % of control.
